Test results from patent publication US20090170937A1, “Amino Acid Derivatives” (Proximagen Ltd., priority 2006, published 2009).
Non-standard residues stand in square brackets, D forms with d. Residues, ends and D or L forms follow the SMILES beside them. *: point of attachment. Dopa = N[C@@H](Cc1ccc(O)c(O)c1)C(=O)O; αMeF = C[C@](N)(Cc1ccccc1)C(=O)O; Aic = NC1(C(=O)O)Cc2ccccc2C1; Ac6c = NC1(C(=O)O)CCCCC1; Ac5c = NC1(C(=O)O)CCCC1; Ac4c = NC1(C(=O)O)CCC1; Ac3c = NC1(C(=O)O)CC1; Aib = CC(C)(N)C(=O)O; OcHex = C1CCC(O*)CC1; OBn = c1ccc(CO*)cc1; OiPr = CC(C)O*

tested on: 6-OHDA-lesioned rats; experiment: Induction of rotational activity in 6-OHDA-lesioned rats; type: in vivo, Male Wistar rats; details: i.p., 63.4 μmole/kg, after benserazide 10 mg/kg; active = >10 turns per 10 minutes

In the case of `COC(=O)[C@H](Cc1ccc(O)c(O)c1)NC(=O)C(C)(C)N.Cl` [Example 1, 1-[(S)-2-(3,4-Dihydroxyphenyl)-1-methoxycarbonylethylcarbamoyl]-1-methyl-ethylammonium Chloride] (H-[Aib]-[Dopa]-OMe), the “duration of activity (as % of L-DOPA duration of activity)” value is reported as 63%.

same assay, conditions: p.o., 63.4 μmole/kg, after benserazide 10 mg/kg; active = >10 turns per 10 minutes

First: COC(=O)[C@H](Cc1ccc(OC(C)=O)c(OC(C)=O)c1)NC(=O)C(C)(C)N.Cl [Example 2, 1-[(S)-2-(3,4-Diacetoxyphenyl)-1-methoxycarbonylethylcarbamoyl]-1-methyl-ethylammonium Chloride]
Second: CC(=O)Oc1ccc(C[C@H](NC(=O)C(C)(C)N)C(=O)O)cc1OC(C)=O.Cl [Example 9, 1-[(S)-1-Carboxy-2-(3,4-diacetoxyphenyl)-ethylcarbamoyl]-1-methylethyl-ammonium Chloride]
The “duration of activity (as % of L-DOPA duration of activity)” value of the first is higher: 73% for the first, 45% for the second.

First: C[C@](N)(Cc1ccccc1)C(=O)N[C@@H](Cc1ccc(O)c(O)c1)C(=O)O.Cl [Example 13, (S)-1-[(S)-1-Carboxy-2-(3,4-dihydroxyphenyl)-ethylcarbamoyl]-1-methyl-2-phenylethylammonium Chloride] (H-[αMeF]-[Dopa]-OH)
Second: COC(=O)[C@H](Cc1ccc(O)c(O)c1)NC(=O)[C@@](C)(N)Cc1ccccc1.Cl [Example 12, (S)-1-[(S)-2-(3,4-Dihydroxyphenyl)-1-methoxycarbonyl-ethylcarbamoyl]-1-methyl-2-phenylethylammonium Chloride] (H-[αMeF]-[Dopa]-OMe)
The “duration of activity (as % of L-DOPA duration of activity)” value of the first is lower: 40% for the first, 52% for the second.

First: Cl.NC1(C(=O)N[C@@H](Cc2ccc(O)c(O)c2)C(=O)O)CC1 [Example 21, 1-[(S)-1-Carboxy-2-(3,4-dihydroxyphenyl)-ethylcarbamoyl]-cyclopropyl Ammonium Chloride] (H-[Ac3c]-[Dopa]-OH)
Second: Cl.NC1(C(=O)N[C@@H](Cc2ccc(O)c(O)c2)C(=O)O)CCC1 [Example 20, 1-[(S)-1-Carboxy-2-(3,4-dihydroxyphenyl)-ethylcarbamoyl]-cyclobutyl-ammonium Chloride] (H-[Ac4c]-[Dopa]-OH)
The “duration of activity (as % of L-DOPA duration of activity)” value of the first is higher: 76% for the first, 37% for the second.

Going from `COC(=O)[C@H](Cc1ccc(OC(C)=O)c(OC(C)=O)c1)NC(=O)C1(N)CCC1.Cl` [Example 11, 1-[(S)-2-(3,4-Diacetoxyphenyl)-1-methoxycarbonylethylcarbamoyl]-cyclobutyl-ammonium Chloride] to `COC(=O)[C@H](Cc1ccc(OC(C)=O)c(OC(C)=O)c1)NC(=O)C1(N)CCCC1.Cl` [Example 8, 1-[(S)-2-(3,4-Diacetoxyphenyl)-1-methoxycarbonylethylcarbamoyl]-cyclopentyl-ammonium Chloride], the “duration of activity (as % of L-DOPA duration of activity)” value falls from 67% to 44%.

Going from `COC(=O)[C@H](Cc1ccc(O)c(O)c1)NC(=O)C1(N)CCC1.Cl` [Example 10] (H-[Ac4c]-[Dopa]-OMe) to `COC(=O)[C@H](Cc1ccc(O)c(O)c1)NC(=O)C1(N)CCCC1.Cl` [Example 7, 1-[(S)-2-(3,4-Dihydroxyphenyl)-1-methoxycarbonylethylcarbamoyl]-cyclopentyl-ammonium Chloride] (H-[Ac5c]-[Dopa]-OMe), the “duration of activity (as % of L-DOPA duration of activity)” value rises from 73% to 97%.

First: COC(=O)[C@H](Cc1ccc(OC(C)=O)c(OC(C)=O)c1)NC(=O)C1(N)CCCCC1.Cl [Example 5, 1-[(S)-2-(3,4-Diacetoxyphenyl)-1-methoxycarbonylethylcarbamoyl]-cyclohexyl-ammonium Chloride]
Second: COC(=O)[C@H](Cc1ccc(OC(=O)CC(C)(C)C)c(OC(=O)CC(C)(C)C)c1)NC(=O)C1(N)CCCCC1.Cl [Example 24, 1-{(S)-2-[3,4-Bis-(3,3-dimethylbutyryloxy)-phenyl]-1-methoxycarbonyl-ethylcarbamoyl}-cyclohexylammonium Chloride]
The “duration of activity (as % of L-DOPA duration of activity)” value of the first is higher: 42% for the first, 36% for the second.

Going from `CC(C)(N)C(=O)N[C@@H](Cc1ccc(O)c(O)c1)C(=O)O.Cl` [Example 6, 1-[(S)-1-Carboxy-2-(3,4-dihydroxyphenyl)-ethylcarbamoyl]-1-methylethyl-ammonium Chloride] (H-[Aib]-[Dopa]-OH) to `CC(C)OC(=O)[C@H](Cc1ccc(O)c(O)c1)NC(=O)C(C)(C)N.Cl` [Example 17, 1-[(S)-2-(3,4-Dihydroxyphenyl)-1-isopropoxycarbonylethylcarbamoyl]-1-methyl-ethylammonium Chloride] (H-[Aib]-[Dopa]-OiPr), the “duration of activity (as % of L-DOPA duration of activity)” value rises from 57% to 72%.

First: COC(=O)[C@H](Cc1ccc(O)c(O)c1)NC(=O)C1(N)CCCCC1.Cl [Example 4, 1-[(S)-2-(3,4-Dihydroxy-phenyl)-1-methoxycarbonyl-ethylcarbamoyl]-cyclohexyl-ammonium Chloride] (H-[Ac6c]-[Dopa]-OMe)
Second: Cl.NC1(C(=O)N[C@@H](Cc2ccc(O)c(O)c2)C(=O)O)CCCC1 [Example 14, 1-[(S)-1-Carboxy-2-(3,4-dihydroxyphenyl)-ethylcarbamoyl]-cyclopentyl-ammonium Chloride] (H-[Ac5c]-[Dopa]-OH)
The “duration of activity (as % of L-DOPA duration of activity)” value of the first is higher: 84% for the first, 62% for the second.

First: COC(=O)[C@H](Cc1ccc(OC(C)=O)c(OC(C)=O)c1)NC(=O)[C@@](C)(N)Cc1ccccc1.Cl [Example 22, (S)-1-[(S)-2-(3,4-Diacetoxyphenyl)-1-methoxycarbonylethylcarbamoyl]-1-methyl-2-phenylethylammonium Chloride]
Second: COC(=O)[C@H](Cc1ccc(OC(C)=O)c(OC(C)=O)c1)NC(=O)C1(N)Cc2ccccc2C1.Cl [Example 16, 2-[(S)-2-(3,4-Diacetoxyphenyl)-1-methoxycarbonylethylcarbamoyl]-indan-2-yl-ammonium Chloride]
The “duration of activity (as % of L-DOPA duration of activity)” value of the first is lower: 19% for the first, 21% for the second.

Compared with `CC(C)(N)C(=O)N[C@@H](Cc1ccc(O)c(O)c1)C(=O)OCc1ccccc1.Cl` [Example 3, 1-[(S)-1-Benzyloxycarbonyl-2-(3,4-dihydroxyphenyl)-ethylcarbamoyl]-1-methyl-ethylammonium Chloride] (H-[Aib]-[Dopa]-OBn), `CC(C)CCOC(=O)[C@H](Cc1ccc(O)c(O)c1)NC(=O)C(C)(C)N.Cl` [Example 23, 1-[(S)-2-(3,4-Dihydroxyphenyl)-1-(3-methylbutoxycarbonyl)-ethylcarbamoyl]-1-methylethylammonium Chloride] is higher in “duration of activity (as % of L-DOPA duration of activity)” value: 38% for the first, 49% for the second.

First: COC(=O)[C@H](Cc1ccc(O)c(O)c1)NC(=O)C1(N)Cc2ccccc2C1.Cl [Example 15, 2-[(S)-2-(3,4-Dihydroxyphenyl)-1-methoxycarbonylethylcarbamoyl]-indan-2-yl-ammonium Chloride] (H-[Aic]-[Dopa]-OMe)
Second: CC(C)(N)C(=O)N[C@@H](Cc1ccc(O)c(O)c1)C(=O)OC1CCCCC1.Cl [Example 18] (H-[Aib]-[Dopa]-OcHex)
The “duration of activity (as % of L-DOPA duration of activity)” value of the first is lower: 31% for the first, 70% for the second.
